# Laboratory results as given in EP1608650B1, “PYRENE-LINKED PYRROLO(2,1-C)(1,4)BENZODIAZEPINE DERIVATIVES USEFUL AS ANTICANCER AGENTS” (Council of Scientific and Industrial Research, priority 2003, dated 2004).
# Legend:
# (Lung) NCI-H460 = assay: In vitro one dose primary anticancer assay (NCI); assay type: cell-based, human; settings: one dose at 10^-4 molar concentration
# (Breast) MCF7 = assay: In vitro one dose primary anticancer assay (NCI); assay type: cell-based, human; settings: one dose at 10^-4 molar concentration
# (CNS) SF-268 = assay: In vitro one dose primary anticancer assay (NCI); assay type: cell-based, human; settings: one dose at 10^-4 molar concentration
# human tumour cell lines = assay: cells
# Protocol: (§1) In vitro biological activity studies were carried out at National Cancer Institute (USA).
# (§2) For each compound, dose response curves for each cell line were measured at a minimum of five concentrations at 10 fold dilutions. A protocol of 48 h continuous drug exposure was used and a sulforhodamine B (SRB) protein assay was used to estimate cell viability or growth. […]
# Breast = settings: average of six to nine different cancer cell lines, log value
# Protocol: as §1, §2
# (§3) Each cancer type represents the average of six to nine different cancer cell lines.
# CNS = settings: average of six to nine different cancer cell lines, log value
# Protocol: as §1, §2, §3
# Colon = settings: average of six to nine different cancer cell lines, log value
# Protocol: as §1, §2, §3
# Leukemia = settings: average of six to nine different cancer cell lines, log value
# Protocol: as §1, §2, §3
# Melanoma = settings: average of six to nine different cancer cell lines, log value
# Protocol: as §1, §2, §3
# Non-small-cell lung = settings: average of six to nine different cancer cell lines, log value
# Protocol: as §1, §2, §3
# Ovarian = settings: average of six to nine different cancer cell lines, log value
# Protocol: as §1, §2, §3
# Prostate = settings: average of six to nine different cancer cell lines, log value
# Protocol: as §1, §2, §3
# Renal = settings: average of six to nine different cancer cell lines, log value
# Protocol: as §1, §2, §3
# [1] = test system: CNS cancer cell lines (SNB75); settings: read-out: potency (at the LC50 level)
# Protocol: as §1, §2
# colon cancer (HCC-2998) = settings: read-out: potency (at the LC50 level)
# Protocol: as §1, §2
# leukemia cancer (SR) = settings: read-out: potency (at the LC50 level)
# Protocol: as §1, §2
# melanoma cancer (M14) = settings: read-out: potency (at the LC50 level)
# Protocol: as §1, §2
# [2] = test system: non-small cell lung cancer (NCI-H226); settings: read-out: potency (at the LC50 level)
# Protocol: as §1, §2
# prostate cancer (DU-145) = settings: read-out: potency (at the LC50 level)
# Protocol: as §1, §2
# renal cancer (A498) = settings: read-out: potency (at the LC50 level)
# Protocol: as §1, §2
compound,measurement,setting,value
"7-Methoxy-8-[N-(1""-pyrenyl)-butne-4'-carboxamide]-oxy-(11aS)-1,2,3,11a-tetra-hydro-5H-pyrrolo[2,1-c][1,4]benzodiazepin-5-one [Vg]",Growth percentages (Lung) NCI-H460,(Lung) NCI-H460,106
same,Growth percentages (Breast) MCF7,(Breast) MCF7,72
same,Growth percentages (CNS) SF-268,(CNS) SF-268,131
"COc1cc2c(cc1OCCCC(=O)Nc1ccc3ccc4cccc5ccc1c3c45)N=C[C@@H]1CCCN1C2=O [Ve, 7-Methoxy-8-[N-(1""-pyrenyl)-propane-3'-carboxamide]-oxy-(11aS)-1,2,3,11atetra-hydro-5H-pyrrolo[2,1-c][1,4]benzodiazepin-5-one]",Growth percentages (Lung) NCI-H460,(Lung) NCI-H460,11
same,Growth percentages (Breast) MCF7,(Breast) MCF7,31
same,Growth percentages (CNS) SF-268,(CNS) SF-268,70
same,GI50,"human tumour cell lines; Homo sapiens, 48 h, read-out: Log10 GI50 (converted)",17.8 nM
same,Log10 LC50,"human tumour cell lines; mean graph midpoint (MG_MID), 48 h continuous drug exposure, 50% cell death",-4.74
same,Log10 TGI,"human tumour cell lines; mean graph midpoint (MG_MID), 48 h continuous drug exposure, total cell growth inhibition",-6.89
same,Log LC50 (concentration in mol/L causing 50% lethality),Breast,> -4.00 mol/L
same,Log LC50 (concentration in mol/L causing 50% lethality),CNS,-5.23 mol/L
same,Log LC50 (concentration in mol/L causing 50% lethality),Colon,-5.00 mol/L
same,Log LC50 (concentration in mol/L causing 50% lethality),Leukemia,-4.65 mol/L
same,Log LC50 (concentration in mol/L causing 50% lethality),Melanoma,-5.62 mol/L
same,Log LC50 (concentration in mol/L causing 50% lethality),Non-small-cell lung,-4.67 mol/L
same,Log LC50 (concentration in mol/L causing 50% lethality),Ovarian,> -4.00 mol/L
same,Log LC50 (concentration in mol/L causing 50% lethality),Prostate,-5.30 mol/L
same,Log LC50 (concentration in mol/L causing 50% lethality),Renal,-5.05 mol/L
same,CC50,[1],10000 nM
same,CC50,colon cancer (HCC-2998),10 nM
same,CC50,leukemia cancer (SR),100 nM
same,CC50,melanoma cancer (M14),100 nM
same,CC50,[2],10 nM
same,CC50,prostate cancer (DU-145),10000 nM
same,CC50,renal cancer (A498),100 nM
